From patent publication US20050256188A1, “Formulations of anthraquinone derivatives” (priority 2002, published 2005)
Where a SMILES comes first, the peptide text is derived from it.

Key:
[1] = pH of AQ4N salts in aqueous solution; assay type: physicochemical; settings: 1.4 mM in water; in Table 4 the label is the acid whose AQ4N disalt was measured
Method: Stock solutions of individual AQ4N salts were prepared by transferring about 1 mg, accurately weighed, and diluting with water to obtain solutions of 1.4 mM. The solution was vortexed for 3 min using a Fisons WhirlMixer™ (Loughborough, Leicestershire, UK). All AQ4N salt solutions were prepared on the same day as determination of the pH value of the solutions, which was done using a digital pH meter (calibrated at 21±1° C. with standard buffers of pH 7.00 and 4.00 from BDH (UK).

[2] = cited from earlier work; for pKa at 25° C. (pKa1): Table 1, pKa1; for pKa at 25° C.: Table 1, pKa index not given; for pKa1 of acid used to prepare AQ4N disalt: value of the free acid, from IUPAC Handbook of Pharmaceutical Salts
[3] = Degradation of AQ4N dihydrochloride in solution at 40° C.: accumulation of AQMN (HPLC); assay type: physicochemical; settings: for AQMN increase per day: 14 days, % w.r.t. AQ4N
Method: The degradation of AQ4N was investigated using 5 mg/ml solutions of AQ4N at a pH of 2.4, 4.5 and 6.8, which equated to water, 20 mM sodium acetate buffer and 20 mM sodium orthophosphate buffer, respectively. The primary degradation pathway of AQ4N is its conversion to AQMN. The increase in AQMN concentration in 5 mg/ml solutions incubated at 40° C. over an intermediate time period (14 days) is shown in FIG. 3.
The effect of pH on the stability of AQ4N was determined by investigating AQ4N degradation in different solutions. The solutions chosen were again distilled water, 20 mM sodium acetate buffer (pH=4) and 20 mM sodium phosphate buffer (pH=7). After preparation of the 5 mg/ml AQ4N buffered solutions the pH was corrected to the required pH of the buffer. The final pHs were 2.4, 4.5 and 6.8 for the distilled water, 20 mM sodium acetate buffer and 20 mM sodium phosphate buffer, respectively. The samples were incubated at 40° C. and sampled at regular intervals. Assay was carried out by sample dilution followed by HPLC analysis.

CC(O)C(=O)O (racemic) [Lactic, Lactic acid]
measured pH of AQ4N di-salt solutions (1.4 mM) [1]: 3.5

CC(CC(=O)O)(CC(=O)O)C(=O)O [2-Methylpropane-1,2,3-triscarboxylic]
pKa at 25° C. (pKa1) [2]: 3.53 (pKa1)

C[N+](C)([O-])CCNc1ccc(NCC[N+](C)(C)[O-])c2c1C(=O)c1c(O)ccc(O)c1C2=O.Cl.Cl [AQ4N dihydrochloride]
measured pH of AQ4N di-salt solutions (1.4 mM) [1]: 2.4 | AQMN increase per day ([3]; 20 mM sodium acetate buffer, pH 4.5, 5 mg/ml solution): 0.19% | AQMN increase per day ([3]; 20 mM sodium orthophosphate buffer (PO4), pH 6.8, 5 mg/ml solution): 0.02% | AQMN increase per day ([3]; H2O, pH 2.4, 5 mg/ml solution): 0.84% | AQMN increase per month ([3]; phosphate buffer, 5 mg/ml solution, 63 days): 0.6%

CC(=O)O [Acetic, acetic acid]
measured pH of AQ4N di-salt solutions (1.4 mM) [1]: 3.8

O=C1CC(=O)NC(=O)N1 [Barbituric]
pKa at 25° C. [2]: 3.98

O=C(O)c1cccc(C(=O)O)c1C(=O)O [Benzene-1,2,3-tricarboxylic (hemimellitic)]
pKa at 25° C. (pKa1) [2]: 2.98 (pKa1)

O=C(O)c1cc(C(=O)O)cc(C(=O)O)c1 [Benzene-1,3,5-tricarboxylic (trimesic)]
pKa at 25° C. (pKa1) [2]: 3.16 (pKa1)

O=C(O)c1cc(C(=O)O)c(C(=O)O)c(C(=O)O)c1C(=O)O [Benzenepentacarboxylic]
pKa at 25° C. (pKa1) [2]: 2.34 (pKa1)

O=S(=O)(O)c1ccccc1 [Benzenesulfonic, benzenesulfonic acid]
measured pH of AQ4N di-salt solutions (1.4 mM) [1]: 2.5 | pKa1 of acid used to prepare AQ4N disalt [2]: −2.5

OCCN(CCO)C(CO)(CO)CO [Bis(2-hydroxyethyl)iminotris(hydroxymethyl)methane]
pKa at 25° C. [2]: 6.46

COc1cc2c(cc1OC)[C@@]13CCN4CC5=CCO[C@H]6CC(=O)N2[C@H]1[C@H]6[C@H]5C[C@H]43.O.O.O.O [Brucine tetrahydrate]
pKa at 25° C. (pKa1) [2]: 2.30 (pKa1)

O=C(O)CC(O)(CC(=O)O)C(=O)O [Citric, citric acid]
measured pH of AQ4N di-salt solutions (1.4 mM) [1]: 3.3

O=C(O)C(Cl)Cl [Dichloroacetic, dichloroacetic acid]
measured pH of AQ4N di-salt solutions (1.4 mM) [1]: 2.4

NCC(=O)NCC(=O)O [Glycylglycine] (H-Gly-Gly-OH)
pKa at 25° C. [2]: 3.06

Cl [Hydrochloric, hydrochloric acid]
measured pH of AQ4N di-salt solutions (1.4 mM) [1]: 2.4

C=C(CC(=O)O)C(=O)O [Itaconic]
pKa at 25° C. (pKa1) [2]: 3.84 (pKa1)

O=C(O)/C=C\C(=O)O [Maleic, maleic acid]
measured pH of AQ4N di-salt solutions (1.4 mM) [1]: 2.6

O=C(O)CC(O)C(=O)O (centres unmarked) [Malic]
pKa at 25° C. (pKa1) [2]: 3.40 (pKa1) | pKa at 25° C. (pKa2) ([2]; Table 1, pKa2): 5.05 (pKa2)

O=C(O)CC(=O)O [Malonic, malonic acid]
measured pH of AQ4N di-salt solutions (1.4 mM) [1]: 2.8

O=C(O)c1ccccc1C(=O)O [Phthalic]
pKa at 25° C. [2]: 2.90

O=C(O)CCCCCC(=O)O [Pimelic, pimelic acid]
measured pH of AQ4N di-salt solutions (1.4 mM) [1]: 3.8 | pKa at 25° C. [2]: 4.48 | pKa1 of acid used to prepare AQ4N disalt [2]: 4.48

C/C=C/C=C/C(=O)O [Sorbic]
pKa at 25° C. [2]: 4.76

O=C(O)C(O)C(O)C(=O)O (centres unmarked) [Tartaric, tartaric acid]
measured pH of AQ4N di-salt solutions (1.4 mM) [1]: 2.8

AQ4N di-acetate [Example 14]
measured pH of AQ4N di-salt solutions (1.4 mM) [1]: 3.8

AQ4N di-benzenesulfonate [Example 6]
measured pH of AQ4N di-salt solutions (1.4 mM) [1]: 2.4

AQ4N di-dichloroacetate [Example 7]
measured pH of AQ4N di-salt solutions (1.4 mM) [1]: 2.5

AQ4N di-pimelate [Example 13]
measured pH of AQ4N di-salt solutions (1.4 mM) [1]: 3.8
